In the NIST ThermoML archive (doi:10.1016/j.fluid.2006.10.023):
Several values for one entry are separate records, joined by “and”; a condition that tells them apart may be missing. Identical values can stand only once. Numbers after ± are expanded uncertainties.

Conditions: Liquid, Closed cell (Static) method

| SMILES | vapor or sublimation pressure (253.15 K) | vapor or sublimation pressure (273.15 K) | vapor or sublimation pressure (293.15 K) |
| --- | --- | --- | --- |
| FCC(F)(F)F [1,1,1,2-tetrafluoroethane] | 133.5 ± 2.1 kPa | 291.8 ± 2.2 kPa | 572.1 ± 2.6 kPa |
| C1CC1 [cyclopropane] | 171.3 ± 2.1 kPa and 171.2 ± 2.1 kPa | 344.1 ± 2.3 kPa and 344.7 ± 2.3 kPa | 631.7 ± 2.8 kPa and 632.2 ± 2.8 kPa |
| FC(F)C(F)(F)F [pentafluoroethane] | 337.3 ± 2.3 kPa | 672.1 ± 2.9 kPa | 1204.7 ± 4.1 kPa |
